What all share (assay): Dundee kinase panel
Holding throughout (format): biochemical
What all share (details): for remaining activity at 1 µM: read-out: residual activity

One experiment concerns the target T1, ASK1 (Homo sapiens, UniProt Q99683).
T1 construct: lines 1-140) and Reaction Biology
T1 sequence (Q99683 1-1374): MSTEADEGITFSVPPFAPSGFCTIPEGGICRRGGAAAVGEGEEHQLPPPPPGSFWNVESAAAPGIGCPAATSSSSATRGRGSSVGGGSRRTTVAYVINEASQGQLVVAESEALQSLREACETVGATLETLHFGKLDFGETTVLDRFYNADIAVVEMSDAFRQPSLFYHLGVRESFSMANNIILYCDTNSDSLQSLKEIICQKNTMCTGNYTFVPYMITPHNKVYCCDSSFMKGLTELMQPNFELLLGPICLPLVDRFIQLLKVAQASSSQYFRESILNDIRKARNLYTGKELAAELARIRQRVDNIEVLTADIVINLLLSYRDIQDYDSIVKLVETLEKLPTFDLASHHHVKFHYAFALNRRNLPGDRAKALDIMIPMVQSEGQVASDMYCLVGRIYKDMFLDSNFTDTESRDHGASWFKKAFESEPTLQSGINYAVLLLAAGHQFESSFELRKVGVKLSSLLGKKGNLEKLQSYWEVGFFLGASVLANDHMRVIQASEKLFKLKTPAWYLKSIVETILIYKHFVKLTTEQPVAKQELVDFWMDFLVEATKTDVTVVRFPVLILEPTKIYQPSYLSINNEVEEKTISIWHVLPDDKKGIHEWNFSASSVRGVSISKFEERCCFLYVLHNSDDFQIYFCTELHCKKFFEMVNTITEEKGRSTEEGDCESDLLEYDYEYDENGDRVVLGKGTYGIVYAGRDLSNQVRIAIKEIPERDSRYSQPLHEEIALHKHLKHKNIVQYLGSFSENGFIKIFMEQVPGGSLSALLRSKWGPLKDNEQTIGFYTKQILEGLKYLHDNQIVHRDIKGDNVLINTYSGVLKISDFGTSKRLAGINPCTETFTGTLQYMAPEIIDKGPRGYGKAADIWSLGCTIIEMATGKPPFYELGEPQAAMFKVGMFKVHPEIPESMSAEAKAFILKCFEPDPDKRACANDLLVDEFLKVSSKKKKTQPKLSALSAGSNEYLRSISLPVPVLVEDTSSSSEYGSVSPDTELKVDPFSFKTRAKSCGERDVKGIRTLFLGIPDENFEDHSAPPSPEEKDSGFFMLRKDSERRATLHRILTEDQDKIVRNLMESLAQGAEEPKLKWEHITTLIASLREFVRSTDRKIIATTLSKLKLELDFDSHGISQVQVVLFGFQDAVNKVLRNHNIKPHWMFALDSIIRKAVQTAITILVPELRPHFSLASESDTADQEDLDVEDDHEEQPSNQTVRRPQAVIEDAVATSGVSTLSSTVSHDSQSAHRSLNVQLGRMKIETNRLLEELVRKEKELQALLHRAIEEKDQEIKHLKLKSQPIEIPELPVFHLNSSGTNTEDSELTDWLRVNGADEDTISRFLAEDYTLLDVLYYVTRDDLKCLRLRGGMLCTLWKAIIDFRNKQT
On the procedure:
(§1) Compounds were screened at 1 μM. For key hits, pIC50 values were then determined by HTRF as above. […] Stability in mouse and human liver microsomes was determined by Cyprotex.

The target in the next experiment is T2, CSK (Homo sapiens, UniProt P41240).
T2 construct: lines 1-140) and Reaction Biology
On the procedure: as §1

For the next experiment, the target named is T3, HIPK3 (Homo sapiens, UniProt Q9H422).
T3 construct: lines 1-140) and Reaction Biology
As for the experimental part:
as §1

The next experiment addresses T4, MAPKAP-K3 (Homo sapiens, UniProt Q16644).
T4 construct: lines 1-140) and Reaction Biology
As for the experimental part:
as §1

For a further experiment, the target named is T5, PLK1 (Homo sapiens, UniProt P53350).
T5 construct: lines 1-140) and Reaction Biology
As for the experimental part: as §1

The target of a further experiment is T6, TAO1 (Homo sapiens, UniProt Q7L7X3).
T6 construct: lines 1-140) and Reaction Biology
T6 sequence (Q7L7X3 1-1001): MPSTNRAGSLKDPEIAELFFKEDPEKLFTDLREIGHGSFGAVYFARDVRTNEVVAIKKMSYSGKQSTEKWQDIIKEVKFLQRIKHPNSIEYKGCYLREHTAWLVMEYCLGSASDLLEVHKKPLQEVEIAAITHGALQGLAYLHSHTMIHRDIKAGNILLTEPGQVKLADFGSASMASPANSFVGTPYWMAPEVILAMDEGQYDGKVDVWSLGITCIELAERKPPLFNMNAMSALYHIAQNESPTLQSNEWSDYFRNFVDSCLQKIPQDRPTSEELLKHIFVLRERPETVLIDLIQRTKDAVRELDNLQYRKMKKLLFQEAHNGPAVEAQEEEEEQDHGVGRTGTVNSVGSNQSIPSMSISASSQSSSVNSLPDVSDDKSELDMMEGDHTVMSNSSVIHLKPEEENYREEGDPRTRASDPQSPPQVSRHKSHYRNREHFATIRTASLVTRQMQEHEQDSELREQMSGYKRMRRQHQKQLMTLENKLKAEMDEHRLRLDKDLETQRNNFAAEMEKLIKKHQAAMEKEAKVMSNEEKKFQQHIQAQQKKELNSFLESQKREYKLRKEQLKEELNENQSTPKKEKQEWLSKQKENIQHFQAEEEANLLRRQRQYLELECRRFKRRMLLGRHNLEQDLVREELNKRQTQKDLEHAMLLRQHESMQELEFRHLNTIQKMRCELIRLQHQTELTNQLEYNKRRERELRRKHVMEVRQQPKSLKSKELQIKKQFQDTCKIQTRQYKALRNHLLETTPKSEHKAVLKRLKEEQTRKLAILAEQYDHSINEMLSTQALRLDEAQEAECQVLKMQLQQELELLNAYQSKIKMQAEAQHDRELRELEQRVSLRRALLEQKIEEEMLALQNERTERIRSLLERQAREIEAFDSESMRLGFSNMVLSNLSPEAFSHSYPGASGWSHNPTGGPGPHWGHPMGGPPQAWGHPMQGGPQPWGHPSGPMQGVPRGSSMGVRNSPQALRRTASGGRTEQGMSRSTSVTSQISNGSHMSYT
As for the experimental part: as §1

The term residual activity denotes the activity still measured, relative to the control. Lower therefore signals little activity left.

T2 sequence (P41240 whole entry): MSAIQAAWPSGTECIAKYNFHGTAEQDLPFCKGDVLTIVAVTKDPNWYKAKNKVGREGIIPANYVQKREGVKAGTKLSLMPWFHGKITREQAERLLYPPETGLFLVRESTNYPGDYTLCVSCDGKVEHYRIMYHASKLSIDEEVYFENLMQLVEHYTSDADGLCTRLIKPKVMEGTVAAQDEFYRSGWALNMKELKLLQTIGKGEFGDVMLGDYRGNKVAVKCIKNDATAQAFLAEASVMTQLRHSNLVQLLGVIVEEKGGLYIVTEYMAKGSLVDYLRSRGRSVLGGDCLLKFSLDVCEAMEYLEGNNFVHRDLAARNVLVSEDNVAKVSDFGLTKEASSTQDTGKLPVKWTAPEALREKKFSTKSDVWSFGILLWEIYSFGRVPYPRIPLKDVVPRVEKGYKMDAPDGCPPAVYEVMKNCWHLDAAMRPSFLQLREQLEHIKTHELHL
T5 sequence (P53350 whole entry): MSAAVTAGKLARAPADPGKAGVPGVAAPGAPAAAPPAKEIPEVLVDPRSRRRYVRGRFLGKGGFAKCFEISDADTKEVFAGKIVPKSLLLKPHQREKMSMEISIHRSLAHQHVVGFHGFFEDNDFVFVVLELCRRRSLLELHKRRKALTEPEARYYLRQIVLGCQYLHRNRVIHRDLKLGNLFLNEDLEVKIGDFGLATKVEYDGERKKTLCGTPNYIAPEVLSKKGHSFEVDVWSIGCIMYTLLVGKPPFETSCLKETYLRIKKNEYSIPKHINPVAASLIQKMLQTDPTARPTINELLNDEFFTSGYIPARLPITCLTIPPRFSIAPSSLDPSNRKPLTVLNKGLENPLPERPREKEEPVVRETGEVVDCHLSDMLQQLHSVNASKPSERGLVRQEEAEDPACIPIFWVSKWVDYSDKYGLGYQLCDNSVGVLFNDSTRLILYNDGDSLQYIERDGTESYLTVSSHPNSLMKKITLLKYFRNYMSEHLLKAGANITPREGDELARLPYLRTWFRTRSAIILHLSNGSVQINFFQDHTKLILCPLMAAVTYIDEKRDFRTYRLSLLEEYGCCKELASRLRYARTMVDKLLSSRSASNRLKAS
T3 sequence (Q9H422 whole entry): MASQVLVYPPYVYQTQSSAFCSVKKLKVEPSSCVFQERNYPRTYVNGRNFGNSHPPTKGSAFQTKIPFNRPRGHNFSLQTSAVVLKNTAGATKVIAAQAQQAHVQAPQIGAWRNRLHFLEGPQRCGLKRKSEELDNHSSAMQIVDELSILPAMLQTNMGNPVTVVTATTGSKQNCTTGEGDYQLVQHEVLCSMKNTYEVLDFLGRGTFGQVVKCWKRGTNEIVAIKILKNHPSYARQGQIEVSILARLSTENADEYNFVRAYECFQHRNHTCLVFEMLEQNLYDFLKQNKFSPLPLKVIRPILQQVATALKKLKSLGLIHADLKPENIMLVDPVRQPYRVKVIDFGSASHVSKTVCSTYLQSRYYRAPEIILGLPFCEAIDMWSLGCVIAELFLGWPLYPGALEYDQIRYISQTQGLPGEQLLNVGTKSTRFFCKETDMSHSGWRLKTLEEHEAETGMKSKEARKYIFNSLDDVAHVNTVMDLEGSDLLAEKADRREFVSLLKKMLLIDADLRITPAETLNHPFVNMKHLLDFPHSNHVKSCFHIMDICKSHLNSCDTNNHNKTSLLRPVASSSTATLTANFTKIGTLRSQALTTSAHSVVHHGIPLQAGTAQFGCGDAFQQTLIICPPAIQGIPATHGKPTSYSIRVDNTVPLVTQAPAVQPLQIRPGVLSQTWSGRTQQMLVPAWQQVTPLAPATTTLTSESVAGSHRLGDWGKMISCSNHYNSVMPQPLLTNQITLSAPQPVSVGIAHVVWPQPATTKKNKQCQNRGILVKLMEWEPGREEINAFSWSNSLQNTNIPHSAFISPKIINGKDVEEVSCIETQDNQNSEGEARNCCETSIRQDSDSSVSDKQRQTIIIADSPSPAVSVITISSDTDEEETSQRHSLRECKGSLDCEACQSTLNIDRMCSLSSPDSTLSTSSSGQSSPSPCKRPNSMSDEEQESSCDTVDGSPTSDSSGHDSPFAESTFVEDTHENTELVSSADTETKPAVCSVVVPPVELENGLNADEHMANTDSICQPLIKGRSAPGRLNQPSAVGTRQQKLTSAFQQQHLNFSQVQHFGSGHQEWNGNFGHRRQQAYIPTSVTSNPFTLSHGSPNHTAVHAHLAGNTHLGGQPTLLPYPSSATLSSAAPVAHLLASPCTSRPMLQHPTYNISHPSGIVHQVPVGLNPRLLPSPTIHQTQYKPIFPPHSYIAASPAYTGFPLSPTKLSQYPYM
T4 sequence (Q16644 whole entry): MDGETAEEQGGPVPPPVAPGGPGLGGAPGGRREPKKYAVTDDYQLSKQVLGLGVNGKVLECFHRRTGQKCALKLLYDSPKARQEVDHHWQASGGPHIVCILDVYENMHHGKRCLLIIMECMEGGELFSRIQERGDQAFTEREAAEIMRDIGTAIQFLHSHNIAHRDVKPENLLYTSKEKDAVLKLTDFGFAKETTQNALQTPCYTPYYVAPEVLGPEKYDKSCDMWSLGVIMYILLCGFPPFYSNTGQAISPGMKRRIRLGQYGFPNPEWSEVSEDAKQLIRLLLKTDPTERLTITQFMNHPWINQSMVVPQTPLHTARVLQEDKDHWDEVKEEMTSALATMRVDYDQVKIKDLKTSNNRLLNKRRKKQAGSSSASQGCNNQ

`O=C1Nc2ccc(I)cc2/C1=C/c1cc(Br)c(O)c(Br)c1` [GW5074]: the remaining activity at 1 µM at ASK1 was 56%; at CSK, 52%; at HIPK3, 25%; on MAPKAP-K3, 71%; at PLK1, 81%; at TAO1, 96%.
On to `Nc1ncc(C(=O)NC2CN(C(=O)C3CC3)C2)c2ccc(-c3cccc(F)c3)nc12` [GNE-495], for which the residual activity on ASK1 (1 μM) was determined as 84%; on CSK (1 μM), 94%; at HIPK3 (1 μM), 81%; at MAPKAP-K3 (1 μM), 99%; at PLK1 (1 μM), 84%; at TAO1 (1 μM), 75%.
Turning to `Oc1ncnc2c1c(-c1ccccc1)cn2-c1ccccc1` [F1386-0303, 5,7-diphenyl-7H-pyrrolo[2,3-d]pyrimidin-4-ol], the remaining activity at 1 µM is 93% at ASK1; 97% on CSK; 93% on HIPK3; 104% on MAPKAP-K3; 100% on PLK1; 98% on TAO1.
For the molecule `COCCOc1ccc(-c2cn(-c3ccccc3)c3nc[nH]c(=O)c23)cc1` [DMX-5804, 5-[4-(2-methoxy-ethoxy)-phenyl]-7-phenyl-3,7-dihydro-pyrrolo[2,3-d]pyrimidin-4-one], the remaining activity at 1 µM on ASK1 amounted to 108%; on CSK, 103%; at HIPK3, 103%; at MAPKAP-K3 it was 104%; on PLK1, 118%; on TAO1, 120%.
On to `O=C1Cc2c([nH]c3ccc(Br)cc23)-c2ccccc2N1` [Kenpaullone], for which the remaining activity at 1 µM on ASK1 was determined as 68%; at CSK, 68%; on HIPK3, 87%; on MAPKAP-K3 it was 83%; on PLK1, 99%; at TAO1, 93%.

For the origin of these results see PMC6458995, “MAP4K4 Inhibition Promotes Survival of Human Stem Cell-Derived Cardiomyocytes and Reduces Infarct Size In Vivo” (Cell Stem Cell, 2019).
